Test results: PubChem BioAssay (NCI)
“And” between values parts separate entries of the source, which are not always exact repeats. Equal values may be shown once.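 A five-concentration, 48-hour dose response in 96-well plates underlies each endpoint, interpolated linearly between surrounding concentrations. Abbreviation: GI50, concentration required for 50% inhibition of growth. TGI: concentration producing complete growth inhibition.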

Assays:
Assay in all cases: DTP human tumour cell line panel, 48 h
[1] = tested on: CCRF-CEM leukemia
[2] = tested on: TK-10 renal
[3] = tested on: SF-539 CNS
[4] = tested on: HL-60(TB) leukemia
[5] = tested on: NCI-H460 lung
[6] = tested on: CAKI-1 renal
[7] = tested on: SK-MEL-2 melanoma
[8] = tested on: 786-0 renal
[9] = tested on: SK-OV-3 ovarian
[10] = tested on: MCF7 breast

Compound	TGI [1]	TGI [2]	TGI [3]	TGI [4]	TGI [5]	TGI [6]	TGI [7]	TGI [8]	TGI [9]	GI50 [1] [µM]	GI50 [2] [µM]	GI50 [3] [µM]	GI50 [10] [µM]	TGI [10] [µM]	GI50 [5] [µM]	GI50 [6] [µM]	GI50 [7] [µM]	GI50 [8] [µM]	GI50 [4] [µM]	GI50 [9] [µM]
CC1=C(C(=O)Nc2ccccc2C)C(c2ccc([N+](=O)[O-])cc2)C(C(=O)Nc2ccccc2C)=C(C)N1	90.5 µM	> 100 µM	> 100 µM	47 µM	> 100 µM	> 100 µM	> 100 µM	> 100 µM	> 100 µM	–	–	–	–	–	–	–	–	–	–	–
O=C(O)c1cc2ccccc2c(N=Nc2c([N+](=O)[O-])cc([N+](=O)[O-])cc2S(=O)(=O)O)c1O	> 100 µM	> 100 µM	–	–	–	> 100 µM	> 100 µM	> 100 µM	> 100 µM	–	–	–	–	–	–	–	–	–	–	–
FC(F)(F)c1ccc(C=NC23CC4CC(CC(C4)C2)C3)cc1	> 100 µM	> 100 µM	> 100 µM	> 100 µM	> 100 µM	> 100 µM	> 100 µM	> 100 µM	> 100 µM	–	–	–	–	–	–	–	–	–	–	–
CCCCCCCCCCCCCC/C(C(=O)OC)=C(/O)C(=O)OCC	> 100 µM	> 100 µM	> 100 µM	> 100 µM	> 100 µM	> 100 µM	32 µM	38.2 µM	> 100 µM	–	–	–	–	–	–	–	–	–	–	–
N#C/C(=C\c1ccc(Br)cc1)n1nnc2cccc(F)c21	> 100 µM	3.55 µM	3.45 µM	–	4.21 µM	4.99 µM	5.14 µM	2.93 µM	–	0.444	1.91	1.86	0.445	1.98	1.97	2.05	1.96	1.48	–	–
CC(=O)O[C@H]1[C@@H]2[C@@H]3[C@@H](C[C@H]1C)[C@@H](C)CO[C@@]1(C)CC/C=C(/C)C[C@@H]2O[C@@H]31	> 100 µM	> 100 µM	> 100 µM	> 100 µM	> 100 µM	> 100 µM	> 100 µM	> 100 µM	> 100 µM	–	–	–	–	–	–	–	–	–	–	–
NC(=O)c1csc(C2C=CC(CO)O2)n1 (configuration not stated)	> 100 µM	> 100 µM	> 100 µM	> 100 µM	> 100 µM	> 100 µM	> 100 µM	> 100 µM	> 100 µM	–	–	–	–	–	–	–	–	–	–	–
CC(=O)NNc1nc(C)c(C(/C=C/c2ccc(Cl)cc2)=N\NS(=O)(=O)c2ccc(C)cc2)s1	> 100 µM	> 100 µM	> 100 µM	> 100 µM	> 100 µM	> 100 µM	> 100 µM	> 100 µM	> 100 µM	–	–	–	–	–	–	–	–	–	–	–
Cc1ccc(NS(=O)(=O)c2cc(C(C)(C)C)ccc2OCCOCCOCCOc2ccc(C(C)(C)C)cc2S(=O)(=O)Nc2ccc(C)cc2)cc1	> 100 µM	> 100 µM	> 100 µM	> 100 µM	> 100 µM	> 100 µM	> 100 µM	> 100 µM	> 100 µM	–	–	–	–	–	–	–	–	–	–	–
CCC(C(=O)[O-])C(=O)[O-].CCC(C(=O)[O-])C(=O)[O-].N.N.NCCCCCN.[Pt+4].[Pt+4]	> 100 µM	> 100 µM	> 100 µM	> 100 µM	> 100 µM	> 100 µM	> 100 µM	> 100 µM	> 100 µM	55.9	> 100	> 100	–	–	21.3	> 100	> 100	> 100	43.1	> 100
C=C(CN(CC(=C)C(=O)c1ccccc1)C(C)(C)C)C(=O)c1ccccc1	> 21 µM	27 µM	31.5 µM	9.7 µM	43.2 µM	14.5 µM	35.3 µM	24.5 µM	34.4 µM	–	–	–	–	–	–	–	–	–	–	–
CC1C=C(OC(=O)c2ccccc2)C(=O)C(n2cc(F)c(=O)n(C(=O)c3ccccc3)c2=O)O1 (configuration not stated)	45.2 µM	> 100 µM	> 100 µM	50.1 µM	> 100 µM	81.4 µM	> 100 µM	> 100 µM	> 100 µM	–	–	–	–	–	–	–	–	–	–	–
Cn1cc2c(n1)c(N/N=C/c1ccccc1)nn1nnnc21	> 100 µM	> 100 µM	> 100 µM	> 100 µM	> 100 µM	> 100 µM	–	> 100 µM	> 100 µM	–	–	–	–	–	–	–	–	–	–	–
O=C1c2ccccc2S(=O)(=O)N1CSC(=S)N1CCCC1	> 100 µM	> 100 µM	> 100 µM	–	> 100 µM	> 100 µM	> 100 µM	> 100 µM	> 100 µM	5.78	> 100	> 100	> 22.9	> 100	45.4	> 100	> 100	> 100	–	> 100
N/N=C1\c2ccccc2C2/C(=N\N)c3ccccc3C12 (configuration not stated)	> 100 µM	> 100 µM	> 100 µM	> 100 µM	> 100 µM	> 100 µM	> 100 µM	> 100 µM	> 100 µM	–	–	–	–	–	–	–	–	–	–	–
CCOc1ccccc1NC(=O)CCc1nnc2s/c(=C\CCc3ccccc3)c(=O)n12	> 100 µM	> 100 µM	> 100 µM	> 100 µM	> 100 µM	> 100 µM	> 100 µM	> 100 µM	> 100 µM	–	–	–	–	–	–	–	–	–	–	–
Cc1ccc(S(=O)(=O)N2CCC3(C(/C=C/c4ccccc4)=Nc4ccccc43)C2c2ccccc2)cc1 (configuration not stated)	> 100 µM	> 100 µM	> 100 µM	> 100 µM	> 100 µM	> 100 µM	–	> 100 µM	> 100 µM	–	–	–	–	–	–	–	–	–	–	–
Cc1ccc(S(=O)(=O)Oc2ccc3c4c(c(=O)oc3c2)CCCCC4)cc1	> 100 µM	> 100 µM	> 100 µM	–	–	> 100 µM	> 100 µM	> 100 µM	> 100 µM	5.18	> 100	6.77	9.16	> 100	–	> 100	> 100	> 100	–	> 100
CC1CCCC(C(O)CC2CC(=O)N(c3ccccc3)C(=O)C2)C1=O (configuration not stated)	> 100 µM	> 100 µM	> 100 µM	> 100 µM	> 100 µM	> 100 µM	–	> 100 µM	> 100 µM	–	–	–	–	–	–	–	–	–	–	–
C=CCNC1=C(C(=O)OCC)C(=O)CO1	> 100 µM	> 100 µM	> 100 µM	> 100 µM	> 100 µM	> 100 µM	> 100 µM	> 100 µM	–	–	–	–	–	–	–	–	–	–	–	–
C/C(=N\NC(=O)CC(=O)Nc1ccc(Cl)cc1)c1cc2ccccc2oc1=O	> 100 µM	> 100 µM	> 100 µM	> 100 µM	> 100 µM	–	–	> 100 µM	> 100 µM	–	–	–	–	–	–	–	–	–	–	–
CN(C)c1ccc(/C=C2\CNC/C(=C\c3ccc(N(C)C)cc3)C2=O)cc1	> 100 µM	> 100 µM	> 100 µM	–	29.4 µM	–	–	31.6 µM	> 100 µM	–	–	–	–	–	–	–	–	–	–	–
Cc1c(O)c(=O)ccn1C1OC(CO)C(O)C1O (configuration not stated)	> 100 µM	> 100 µM	–	56.3 µM	> 100 µM	> 100 µM	> 100 µM	> 100 µM	> 100 µM	–	–	–	–	–	–	–	–	–	–	–
CC(=O)OCC1OC(OC2CC3C(C)(C)C(OC(C)=O)CC[C@]3(C)C3CCC45CC4(CC[C@H]5C(C)CC(O)C4OC4(C)C)[C@]23C)C(O)C(O)C1O (some centres not stated)	2.3 µM and 5.04 µM	9.79 µM and 12.7 µM	8.92 µM and 6.62 µM	2.09 µM and 3.03 µM	5.75 µM and 9.38 µM	12.2 µM and 29.9 µM	6.17 µM and 14.6 µM	10.6 µM and 14.1 µM	8.7 µM and 11.2 µM	2.19	–	2.47	–	–	3.21	15.6	4.29	3.58	0.623	3.22
COc1c2ccccc2c(O)c2c(=O)c(C(=O)O)cn(C)c12	> 100 µM	–	> 100 µM	–	> 100 µM	–	> 100 µM	> 100 µM	> 100 µM	> 100	–	35.9	> 100	> 100	> 100	–	> 100	> 100	–	> 100
O=C1CC2CCCCC2=C1O (configuration not stated)	> 100 µM	> 100 µM	> 100 µM	> 100 µM	> 100 µM	> 100 µM	> 100 µM	> 100 µM	> 100 µM	–	–	–	–	–	–	–	–	–	–	–
O=C(CC/C(C/C(=N/O)c1ccc(F)cc1)=N/O)N(Cc1ccccc1)Cc1ccccc1	> 100 µM	> 100 µM	> 100 µM	> 100 µM	> 100 µM	> 100 µM	> 100 µM	> 100 µM	–	–	–	–	–	–	–	–	–	–	–	–
CCOP(=O)(CC(=O)C1=C(O)C(CCCNC(=O)OC(C)(C)C)N(Cc2ccc(OC)c(OC)c2)C1=O)OCC (configuration not stated)	> 100 µM	> 100 µM	> 100 µM	> 100 µM	> 100 µM	–	> 100 µM	> 100 µM	–	–	–	–	–	–	–	–	–	–	–	–
Cc1ccc(S(=O)(=O)CNC(=S)CCCC(=S)NCS(=O)(=O)c2ccc(C)cc2)cc1	> 100 µM	> 100 µM	> 100 µM	> 100 µM	> 100 µM	> 100 µM	–	> 100 µM	> 100 µM	–	–	–	–	–	–	–	–	–	–	–
O=S(=O)(NC(=S)Nc1ccccc1)c1ccc(N2N=C3c4ccccc4CC3C2c2cccs2)cc1 (configuration not stated)	85.9 µM	39.7 µM	46.3 µM	–	> 100 µM	43.8 µM	> 100 µM	40.4 µM	> 100 µM	30.5	12.2	22.7	3.7	> 100	24.6	18.5	59.9	19.7	–	49.5
